The results in this text go back to patent publication EP2949653A1, “ISOXAZOLE DERIVATIVES AS LEUKOTRIENE BIOSYNTHESIS INHIBITORS” (Banoglu, Erden, priority 2014, dated 2015).

Test [1] concerns 5-LO mediated product formation. In words: 5-LO mediated product formation in intact neutrophils stimulated with A23187 (cell-based). Particulars: for IC50: Neutrophil. Also on record: species or system human. As for the experimental part:
(§1) Cell based and cell-free assays carried out in biological studies, immunofluorescence microscopy analysis and zymosan-induced peritonitis in mice are performed as described hereinabove (Pegola, C. and et al., British J. Pharmacology, 2014, D01:10.1111/bph.12625). In the cell based assays (intact neutrophils or monocytes), 5-LO mediated product formation is started, after pre-incubation with test compounds (or control DMSO) for 15 min. at 37 °C, with addition of Ca-ionophore A23187 (2.5 µM) to the fresh 5 x 10^6 neutrophils or monocytes suspended in 1 ml of PGC buffer (phosphate buffered saline (PBS) solution containing 1 mg ml^-1 glucose and 1mM CaCl2, pH 7.4). After the incubation for 10 min. at 37 °C, the reaction is ended with addition of 1 ml of methanol, and 30 µL 1 N HCl, 200 ng prostaglandin B1 and 500 µL PBS are added to the mixture. In cell-free assays (isolated 5-LO and cell homogenates), human recombinant 5-LO protein or 40,000g supernatant is added to 1 ml of 5-LO reaction mixture (PBS, pH 7.4, 1 mM EDTA, 1 mM ATP), and then incubated with test compounds (or control DMSO) for 10 min. at 4°C, heated to 37 °C and 2 mM CaCl2 as well as AA at certain concentrations are added. The reaction is ended as described for the cell-based assays. Resulting 5-LO mediated products are extracted and analysed by the known method of high pressure liquid chromatography (HPLC) (Pergola, C. Proc Natl. Acad. Sci. U.S.A. 2008, 105, 19881). 5-LO mediated product formation (LTB4 and all trans isomers, and 5 (S)-hydro(pero)xy-6-trans-8, 11, 14-cis-eicosatetraenoic acid, 5-H(p)ETE) is expressed as ng per 10^6 cell. Cysteinyl-LTs have not been analyzed because that the amount of C4, D4 and E4 and LTB4 oxidation products are below the detection limit.
(§2) Compounds were tested in intact human neutrophils stimulated with 2.5 µM A23187 under cell based conditions and on purified 5-LO under cell free conditions. ^aData are given as remaining activity as a percentage of control (100%) at 10 µM or 1 µM inhibitor concentrations (means ± SE, n = 3-6).
Compound 9hj inhibited 5-LO mediated product formation with IC50 of 60 nM in human neutrophils. Neutrophils are stimulated with Ca-ionophore A23187 (2.5 µM), without the addition of exogenous arachidonic acid (AA), after pre-incubation with 9hj or vehicle (0.1 % DMSO). 100% controls correspond to 275.7 ng mL^-1 of 5-LO mediated products (Figure 1).
100% controls correspond to 328.97 ng mL^-1 of 5-LO mediated products.

The target of the next test is T1, purified 5-LO (Homo sapiens, UniProt P09917).
T1 sequence (P09917 1-674): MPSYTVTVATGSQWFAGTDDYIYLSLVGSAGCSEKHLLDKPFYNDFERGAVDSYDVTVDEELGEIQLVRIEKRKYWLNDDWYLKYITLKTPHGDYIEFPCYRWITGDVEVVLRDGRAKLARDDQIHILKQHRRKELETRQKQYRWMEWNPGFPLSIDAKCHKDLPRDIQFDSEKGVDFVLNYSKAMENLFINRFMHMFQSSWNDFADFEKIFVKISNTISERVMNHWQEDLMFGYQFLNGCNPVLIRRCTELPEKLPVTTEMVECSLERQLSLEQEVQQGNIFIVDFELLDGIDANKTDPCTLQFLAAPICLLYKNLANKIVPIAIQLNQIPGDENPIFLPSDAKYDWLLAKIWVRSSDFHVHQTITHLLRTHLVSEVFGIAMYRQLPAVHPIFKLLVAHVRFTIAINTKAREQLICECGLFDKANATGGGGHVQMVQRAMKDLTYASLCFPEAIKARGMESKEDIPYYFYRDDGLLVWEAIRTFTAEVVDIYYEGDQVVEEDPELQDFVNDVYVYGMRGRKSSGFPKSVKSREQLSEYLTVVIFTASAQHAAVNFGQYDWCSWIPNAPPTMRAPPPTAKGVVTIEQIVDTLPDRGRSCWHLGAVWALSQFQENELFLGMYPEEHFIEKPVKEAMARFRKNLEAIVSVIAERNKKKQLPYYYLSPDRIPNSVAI
In words: Purified / human recombinant 5-LO activity (cell-free). The class given is biochemical. As for the experimental part:
as §1, §2
9hj was added 15 min before addition of 2 mM Ca^2+ plus 3 µM, 10 µM and 30 µM AA. 100% controls correspond to 200.35 ng mL^-1 for 3 µM AA, 514.36 ng mL^-1 for 10 µM AA and 537.73 ng mL^-1 for 30 µM AA.

Test [2] has as its system 5-LO mediated product formation. The test can be described thus: 5-LO mediated product formation in intact monocytes stimulated with A23187. The class given is cell-based. To be noted: Homo sapiens, Monocyte; A23187 (2.5 µM), absence of exogenous AA (Figure 3). As for the experimental part: as §1, with “In cell-free assays (isolated 5-LO and cell homogenates), human recombinant 5-LO protein or 40,000g supernatant is added to 1 ml of 5-LO reaction mixture (PBS, pH 7.4, 1 mM EDTA, 1 mM ATP), and then incubated with test compounds (or control DMSO) for 10 min. at 4°C, heated to 37 °C and 2 mM CaCl2 as well as AA at certain concentrations are added. The reaction is ended as described for the cell-based assays.” left out, “limit. […]” for “limit.”

In test [3] the test system is 5-LO mediated product synthesis. The test can be described thus: 5-LO mediated product synthesis in neutrophils under cell-stress (NaCl or diamide). In kind it is cell-based. Particulars: in the presence of cell-stress (0.3 M NaCl or 0.25 mM diamide), human neutrophils (Figure 4A-B). The procedure:
Inhibitory activity of compound 9hj on 5-LO mediated product synthesis in human neutrophils is shifted to the right by factor 10 in the presence of cell-stress (i.e., 0.3 M NaCl or 0.25 mM diamide), which is typical for non-redox type 5-LO inhibitors or FLAP inhibitors (Figure 4A-B). To intact neutrophils, 0.3 M sodium chloride (NaCl) or vehicle (DMSO) was added 3 min before addition of 9hj at 37°C. After addition of 9hj for another 10 min at 37°C, cells were stimulated with 20 µM AA for 10 min at 37°C. Data are expressed as percentage of vehicle control (0.1% DMSO). 100% controls correspond to 174.41 ng mL^-1 for 0.3 M NaCl and 50.73 ng mL^-1 for control (DMSO) (Figure 4A). To intact neutrophils, 0.25 mM diamide or vehicle (DMSO) was added 5 min before addition of 9hj at 37°C (Figure 4b). After addition of 9hj for another 15 min at 37°C, cells were stimulated with 2.5 µM A23187 plus 20 µM AA for 10 min at 37°C. Data are expressed as percentage of vehicle control (0.1% DMSO). 100% controls correspond to 1148.61 ng mL^-1 for 0.25 mM diamide and 802.06 ng mL^-1 for control (DMSO) (Figure 4B).

Several values for one entry are separate records, joined by “and”; a condition that tells them apart may be missing. Equal entries are not always repeated. Where two headings read alike, the source gives them in different places.

With `O=C(O)c1noc(-c2ccc(OCc3ccc4ccccc4n3)cc2)c1-c1ccc(Cl)cc1` [Compound 9hj, 4-(4-Chlorophenyl)-5-(4-(quinolin-2-ylmethoxy)phenyl)isoxazole-3-carboxylic acid], the IC50 was 0.06 µM in test [1] (Homo sapiens, A23187 (2.5 µM), without exogenous AA, vehicle 0.1 % DMSO (Figure 1), read-out: IC50 5-LO mediated product formation in human neutrophils); 0.24 µM in test [1] (intact human neutrophils stimulated with 2.5 µM A23187, mean ± SE, n = 3-4, read-out: Inhibition of purified 5-LO activity IC50 (µM) cell based); 2 µM on purified 5-LO (human recombinant 5-LO, at 3, 10 and 30 µM substrate AA (Figure 5), read-out: mean IC50 activity of isolated 5-LO); 8 µM and 8.01 µM at purified 5-LO (purified 5-LO under cell free conditions, mean ± SE, n = 3-4, read-out: Inhibition of purified 5-LO activity IC50 (µM) cell-free); 5 nM in test [2]. In addition, the activity at 1 µM in test [1] (PMNL, remaining activity at 1 µM inhibitor, human neutrophils, 2.5 µM A23187, means ± SE, n = 3-6, read-out: 5-LO mediated product formation in intact neutrophils (PMNL) (% of control) at 1 µM) worked out at 12.1 ± 5.26%. Moreover, the activity at 10 µM in test [1] (PMNL, remaining activity at 10 µM inhibitor, human neutrophils, 2.5 µM A23187, means ± SE, n = 3-6, read-out: 5-LO mediated product formation in intact neutrophils (PMNL) (% of control) at 10 µM) stood at 2.73 ± 1.41%. The “Inhibitory activity shifted to the right by factor” value in test [3] was 10.
